According to US20250108036A1, “COMPOSITIONS FOR REMOVING SENESCENT CELLS AND USES THEREOF” (LIFECEUTIX CO., LTD., priority 2021, published 2025):

Assays:
IL6, activin A = experiment: serum IL6 and activin A ELISA in obesity-aged mice (Example 9-3); assay type: in vivo, C57BL6J mice; settings: LX-112 70 mg/kg oral daily 21 days
Method: 15-week-old male C57BL6J mice (purchased from Jackson Laboratories), whose obesity was induced by a high-fat diet, were adapted to the experimental environment for one week, and then the mice were randomized into an experimental group and a control group. LX-112 was mixed with 0.5% CMC-Na solution (purchased from Sigma) and administered orally at a concentration of 70 mg/kg daily for 21 days. The control group was administered only the solution in the same volume. After drug administration was completed, the method described in each Example below was performed. Mice were sacrificed and the weight of adipose tissue in each area was measured.
Using the same method as in Example 7-5, the amount of IL6 and activin A, which are aging-related inflammation secretory factors (SASP), were measured in serum collected from mice using an enzyme-linked immunosorbent assay (ELISA Kit, purchased from R&D Systems).

p16 = p16 mRNA qRT-PCR in organ tissues of naturally aged mice (Example 7-2); assay type: in vivo, C57BL6J mice; settings: LX-112 70 mg/kg oral daily 21 days, aged untreated = 100%
Method: (§1) After 22-month-old female C57BL6J mice (purchased from KRIBB Laboratory Animal Resource Center) were adapted to the experimental environment for one week, the aged mice were randomized into an experimental group and a control group. 8-week-old mice that were not aged were used as controls. LX-112 was mixed with 0.5% CMC-Na solution (purchased from Sigma) and administered orally at a concentration of 70 mg/kg daily for 21 days. The control group was administered only the solution in the same volume. After drug administration was completed, the method described in each Example below was performed.
The mouse was sacrificed, RNA was extracted from the organ tissue of each region, and qRT-PCR was performed using the synthesized cDNA. Specifically, in order to maintain the quality of RNA during the RNA extraction process, the tissue from each collected area was immediately cut into 30 mg to 50 mg pieces, placed in RNA stabilization solution (purchased from Thermo Fisher Scientific), and absorbed into the tissue for 1 day. Afterwards, it was stored at −80° C. until use. The collected tissue was placed together with the lysate in a tube containing beads for tissue homogenization (purchased from MP Bio) and homogenized using tissue homogenization equipment (purchased from MP Bio). Total RNA was extracted from the homogenized tissues. The extraction method used an RNA extraction kit (PureLink RNA Mini Kit, purchased from Thermo Fisher Scientific) for soft tissues including liver, kidney, lung, and brain, or TRIzol Reagent (purchased from Thermo Fisher Scientific) for hard tissues including muscle, skin, fat, etc. The concentration of extracted total RNA was quantified using Nanodrop (purchased from Micro Digital) or SpectraMax iD3 Multi-Mode Microplate Reader (purchased from Molecular Device). Genomic DNA was removed from the extracted total RNA using a cDNA synthesis kit (purchased from Thermo Fisher Scientific), and cDNA was prepared. Using the synthesized cDNA, qRT-PCR was performed for each gene using the housekeeping gene β-actin as a standard, using Taqman Fast Abvanced Master Mix (purchased from Applied Biosystems), SFCgreen I qPCR Master Mix (purchased from SFC Probe), or AmfiSure qGreen qPCR Master Mix (purchased from GenDEPOT), and analyzed using the CFX Connect Real-Time PCR Detection System (purchased from Bio Rad). […] Table 22 calculates the amount of p16 mRNA after senescence was induced as 100% and compared it with the amount of p16 mRNA after treatment with LX-112. The primers used were synthesized through bionics, except that TaqMan primers (purchased from Thermo Fisher Scientific) were used for p16 and IL6.

IL6 = experiment: serum IL6 ELISA in doxorubicin-aged mice (Example 8-5); assay type: in vivo, C57BL6J mice; settings: doxorubicin-aged mice, LX-112 70 mg/kg oral daily 21 days
Method: After adapting 8-week-old male C57BL6J mice (purchased from KRIBB Laboratory Animal Resource Center) to the experimental environment for 1 week, doxorubicin, an anticancer drug, was administered intraperitoneally at a concentration of 10 mg/kg, and mice that were induced to age for more than 10 days were assigned to an experimental group and a control group. LX-112 was mixed with 0.5% CMC-Na solution (purchased from Sigma) and administered orally at a concentration of 70 mg/kg daily for 21 days. The control group was administered only the solution in the same volume. After drug administration was completed, the method described in each Example below was performed.
The amount of IL6, an aging-related inflammation secretory factor (SASP), was measured in serum collected from mice in the same manner as in Example 7-5 using an enzyme-linked immunosorbent assay (ELISA Kit, purchased from R&D Systems).

[1] = chlorhexidine gluconate-induced peritoneal fibrosis in mice (Example 6-2); assay type: in vivo, C57BL6J mice; settings: 0.1% CHG 10 ml/kg i.p. every 2 days for 20 days; LX-112 70 mg/kg i.p. daily from day 9
Method: After 8-week-old male C57BL6J mice (purchased from KRIBB Laboratory Animal Resource Center) were adapted to the experimental environment for 1 week, the mice were randomized into an experimental group and a control group. To induce peritoneal fibrosis, 0.1% chlorhexidine gluconate (CHG, purchased from Sigma) was dissolved in 15% ethanol phosphate buffer solution and administered intraperitoneally at a concentration of 10 ml/kg every 2 days for 20 days. From day 9, LX-112 was mixed with 0.5% CMC-Na solution (purchased from Sigma) and administered intraperitoneally at a concentration of 70 mg/kg every day. The control group (−) was administered only the solution in the same volume. On the 20th day, paraffin sections of peritoneal tissue prepared by fixation in 4% paraformaldehyde solution were stained with H/E (Hematoxylin/Eosin) and trichrome, and the thickness of the peritoneal mesothelial cell layer was measured under a light microscope.

[2] = test system: MMP3, IL1β, MMP12, IL6, MMP13; experiment: SASP mRNA qRT-PCR in organ tissues of naturally aged mice (Example 7-6); assay type: in vivo, C57BL6J mice; settings: LX-112 70 mg/kg oral daily 21 days, aged untreated = 100%
Method: as §1
Using cDNA synthesized in the same manner as in Example 7-2, qRT-PCR was performed and analyzed for MMP3, IL1β, MMP12, IL6, and MMP13, which are aging-related inflammation and fibrosis secretory factors (SASP). […] Table 31 calculates the mRNA amount of each factor after senescence was induced as 100% and compared it with the mRNA amount of each factor after treatment with LX-112.

A549 = experiment: CellTiter-Glo cell viability of senescent A549 cancer cells (Example 12, Table 67); assay type: cell-based, human; settings: Homo sapiens, A549, doxorubicin-induced senescent A549 cancer cells, 1.1 μM test compound, CellTiter-Glo; read-out: Survival (%)

SMILES | Activin A (%) (IL6, activin A) | IL6 (%) (IL6, activin A) | p16 mRNA (%) Brain (p16) | p16 mRNA (%) Kidney (p16) | p16 mRNA (%) Liver (p16) | p16 mRNA (%) Lung (p16) | p16 mRNA (%) Muscle (p16) | p16 mRNA (%) Skin (p16) | p16 mRNA (%) eWAT (p16) | IL6 (%) (IL6) | Submesothelial Thickness (μm) [1] | mRNA (%) Kidney IL1β [2] | mRNA (%) Liver MMP3 [2] | mRNA (%) Lung MMP 12 [2] | mRNA (%) Muscle IL6 [2] | mRNA (%) Skin MMP3 [2] | mRNA (%) Skin MMP12 [2] | mRNA (%) Skin MMP13 [2] | viability at 1.1 µM (A549)
O=c1c2ccccc2[se]n1CCn1[se]c2ccccc2c1=O [LX-112, 1,2-[bis(1,2-benzisoselenazolone-3(2H)-ketone)]ethane] | 64.5 (±12.3) % | 51.8 (±14.2) % | 89 (±5) % | 52 (±7.9) % | 62 (±3.5) % | 69 (±1) % | 76 (±3.1) % | 74 (±6.7) % | 79 (±2) % | 69.8 (±12.2) % | 43.1 (±10.4) μm | 67 (±3.9) % | 75 (±13) % | 81 (±13) % | 65 (±21) % | 92 (±6) % | 78 (±14) % | 95 (±2) % | 
COC(=O)c1ccc([C@H]2c3[nH]c4ccccc4c3C[C@H](C(=O)OC)N2C(=O)CCl)cc1 [LX-405] |  |  |  |  |  |  |  |  |  |  |  |  |  |  |  |  |  |  | 23.8%
